# Laboratory results reported in US20230085307A1, “PYRIDAZINONE COMPOUND AND HERBICIDE” (NISSAN CHEMICAL CORPORATION, priority 2019, published 2023).
# Assays:
# [1] = system: false cleavers; test: Test Example 5: herbicidal effect by foliage application, plastic box (Table 20, symbol Q); format: in vivo, false cleavers (Galium spurium); settings: foliage application
# Method in brief: (§1)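 Foliar spray test: emulsion formulation diluted in water to a set application rate, sprayed onto 14-day-old plants raised in diluvial soil at 25° C to 30° C under glass. Both herbicidal effect and crop effect rated visually three weeks later.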
# [2] = system: redroot pigweed; test: Test Example 5: herbicidal effect by foliage application, plastic box (Table 20, symbol N); format: in vivo, redroot pigweed (Amaranthus retroflexus); settings: foliage application
# Method in brief: as §1
# [3] = system: rice flat sedge; test: Test Example 3: herbicidal effect by foliage application, Wagner pot (Table 18, symbol E); format: in vivo, rice flat sedge (Cyperus iria)
# Method in brief: (§2)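 Plants were sown in alluvial soil held under 0.1–0.5 cm standing water and grown 14 days in a greenhouse at 25–30 °C. An emulsifiable formulation, water-diluted to the set dose, was then sprayed onto the foliage, and effects were scored three weeks later using previously defined criteria.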
# [4] = system: wild oat; test: Test Example 4: herbicidal effect by soil treatment (Table 19, symbol I); format: in vivo, wild oat (Avena fatua)
# Method in brief: (§3)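 Step 1: sow seeds in sterilized diluvial soil, cover ~1.5 cm. Step 2: spray diluted emulsion onto soil surface at predetermined rate. Step 3: greenhouse, 25–30° C, three weeks. Step 4: grade effect on each plant by earlier criteria.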
# [5] = system: chickweed; test: Test Example 4: herbicidal effect by soil treatment (Table 19, symbol P); format: in vivo, common chickweed (Stellaria media)
# Method in brief: as §3
# [6] = system: lambsquarters; test: Test Example 4: herbicidal effect by soil treatment (Table 19, symbol O); format: in vivo, lambsquarters (Chenopodium album)
# Method in brief: as §3
# [7] = system: green foxtail; test: Test Example 4: herbicidal effect by soil treatment (Table 19, symbol G); format: in vivo, green foxtail (Setaria viridis)
# Method in brief: as §3
# [8] = system: southern crabgrass; test: Test Example 5: herbicidal effect by foliage application, plastic box (Table 20, symbol F); format: in vivo, southern crabgrass (Digitaria ciliaris); settings: foliage application
# Method in brief: as §1
# [9] = system: Italian ryegrass; test: Test Example 4: herbicidal effect by soil treatment (Table 19, symbol K); format: in vivo, Italian ryegrass (Lolium multiflorum)
# Method in brief: as §3
# [10] = system: blackgrass; test: Test Example 4: herbicidal effect by soil treatment (Table 19, symbol J); format: in vivo, blackgrass (Alopecurus myosuroides)
# Method in brief: as §3
# [11] = system: windgrass; test: Test Example 4: herbicidal effect by soil treatment (Table 19, symbol L); format: in vivo, windgrass (Apera spica-venti)
# Method in brief: as §3
# [12] = system: persian speedwell; test: Test Example 5: herbicidal effect by foliage application, plastic box (Table 20, symbol R); format: in vivo, Persian speedwell (Veronica persica); settings: foliage application
# Method in brief: as §1
# [13] = system: persian speedwell; test: Test Example 4: herbicidal effect by soil treatment (Table 19, symbol R); format: in vivo, Persian speedwell (Veronica persica)
# Method in brief: as §3
# [14] = system: redroot pigweed; test: Test Example 4: herbicidal effect by soil treatment (Table 19, symbol N); format: in vivo, redroot pigweed (Amaranthus retroflexus)
# Method in brief: as §3
# [15] = system: blackgrass; test: Test Example 5: herbicidal effect by foliage application, plastic box (Table 20, symbol J); format: in vivo, blackgrass (Alopecurus myosuroides); settings: foliage application
# Method in brief: as §1
# [16] = system: chickweed; test: Test Example 5: herbicidal effect by foliage application, plastic box (Table 20, symbol P); format: in vivo, common chickweed (Stellaria media); settings: foliage application
# Method in brief: as §1
# [17] = system: green foxtail; test: Test Example 5: herbicidal effect by foliage application, plastic box (Table 20, symbol G); format: in vivo, green foxtail (Setaria viridis); settings: foliage application
# Method in brief: as §1
# [18] = system: velvetleaf; test: Test Example 4: herbicidal effect by soil treatment (Table 19, symbol M); format: in vivo, velvetleaf (Abutilon theophrasti)
# Method in brief: as §3
# [19] = system: Italian ryegrass; test: Test Example 5: herbicidal effect by foliage application, plastic box (Table 20, symbol K); format: in vivo, Italian ryegrass (Lolium multiflorum); settings: foliage application
# Method in brief: as §1
# [20] = system: barnyard grass; test: Test Example 3: herbicidal effect by foliage application, Wagner pot (Table 18, symbol H); format: in vivo, barnyard grass (Echinochloa crus-galli)
# Method in brief: as §2
# [21] = system: wild oat; test: Test Example 5: herbicidal effect by foliage application, plastic box (Table 20, symbol I); format: in vivo, wild oat (Avena fatua); settings: foliage application
# Method in brief: as §1
# [22] = system: barnyard grass; test: Test Example 4: herbicidal effect by soil treatment (Table 19, symbol H); format: in vivo, barnyard grass (Echinochloa crus-galli)
# Method in brief: as §3
# [23] = system: lambsquarters; test: Test Example 5: herbicidal effect by foliage application, plastic box (Table 20, symbol O); format: in vivo, lambsquarters (Chenopodium album); settings: foliage application
# Method in brief: as §1
# [24] = system: windgrass; test: Test Example 5: herbicidal effect by foliage application, plastic box (Table 20, symbol L); format: in vivo, windgrass (Apera spica-venti); settings: foliage application
# Method in brief: as §1
# [25] = system: barnyard grass; test: Test Example 5: herbicidal effect by foliage application, plastic box (Table 20, symbol H); format: in vivo, barnyard grass (Echinochloa crus-galli); settings: foliage application
# Method in brief: as §1
# [26] = system: velvetleaf; test: Test Example 5: herbicidal effect by foliage application, plastic box (Table 20, symbol M); format: in vivo, velvetleaf (Abutilon theophrasti); settings: foliage application
# Method in brief: as §1
# [27] = system: Chinese sprangletop; test: Test Example 3: herbicidal effect by foliage application, Wagner pot (Table 18, symbol D); format: in vivo, chinese sprangletop (Leptochloa chinensis)
# Method in brief: as §2
# [28] = system: southern crabgrass; test: Test Example 4: herbicidal effect by soil treatment (Table 19, symbol F); format: in vivo, southern crabgrass (Digitaria ciliaris)
# Method in brief: as §3
# [29] = 320 g/ha, evaluated three weeks after application
# [30] = AAH 80 g/ha, three weeks after application
compound,measurement,setting,value
Cc1nn(C)c(=O)c(-c2c(-c3ccc4c(c3)OCO4)sc3ccc(F)cc23)c1O [2-090],herbicidal effect on Q: false cleavers,[1]; [29],4 (Herbicidal rate of 70% or more and less than 90%)
same,herbicidal effect on N: redroot pigweed,[2]; [29],5 (Herbicidal rate of 90% or more (almost completely withered))
same,"herbicidal effect on E (rice flat sedge), rating 0-5",[3]; 320 g/ha,5 (Herbicidal rate of 90% or more (almost completely withered))
same,"herbicidal effect rating, I: wild oat",[4]; 320 g/ha,0 (Herbicidal rate of 5% or less (almost no effect))
same,"herbicidal effect rating, P: chickweed",[5]; 320 g/ha,4 (Herbicidal rate of 70% or more and less than 90%)
same,"herbicidal effect rating, O: lambsquarters",[6]; 320 g/ha,5 (Herbicidal rate of 90% or more (almost completely withered))
same,"herbicidal effect rating, G: green foxtail",[7]; 320 g/ha,3 (Herbicidal rate of 40% or more and less than 70%)
same,herbicidal effect on F: southern crabgrass,[8]; [29],4 (Herbicidal rate of 70% or more and less than 90%)
same,"herbicidal effect rating, K: Italian ryegrass",[9]; 320 g/ha,4 (Herbicidal rate of 70% or more and less than 90%)
same,"herbicidal effect rating, J: blackgrass",[10]; 320 g/ha,2 (Herbicidal rate of 20% or more and less than 40%)
same,"herbicidal effect rating, L: windgrass",[11]; 320 g/ha,0 (Herbicidal rate of 5% or less (almost no effect))
same,herbicidal effect on R: persian speedwell,[12]; [29],5 (Herbicidal rate of 90% or more (almost completely withered))
same,"herbicidal effect rating, R: persian speedwell",[13]; 320 g/ha,5 (Herbicidal rate of 90% or more (almost completely withered))
same,"herbicidal effect rating, N: redroot pigweed",[14]; 320 g/ha,5 (Herbicidal rate of 90% or more (almost completely withered))
same,herbicidal effect on J: blackgrass,[15]; [29],4 (Herbicidal rate of 70% or more and less than 90%)
same,herbicidal effect on P: chickweed,[16]; [29],5 (Herbicidal rate of 90% or more (almost completely withered))
same,herbicidal effect on G: green foxtail,[17]; [29],5 (Herbicidal rate of 90% or more (almost completely withered))
same,"herbicidal effect rating, M: velvetleaf",[18]; 320 g/ha,5 (Herbicidal rate of 90% or more (almost completely withered))
same,herbicidal effect on K: Italian ryegrass,[19]; [29],5 (Herbicidal rate of 90% or more (almost completely withered))
same,"herbicidal effect on H (barnyard grass), rating 0-5",[20]; 320 g/ha,5 (Herbicidal rate of 90% or more (almost completely withered))
same,herbicidal effect on I: wild oat,[21]; [29],3 (Herbicidal rate of 40% or more and less than 70%)
same,"herbicidal effect rating, H: barnyard grass",[22]; 320 g/ha,2 (Herbicidal rate of 20% or more and less than 40%)
same,herbicidal effect on O: lambsquarters,[23]; [29],5 (Herbicidal rate of 90% or more (almost completely withered))
same,herbicidal effect on L: windgrass,[24]; [29],5 (Herbicidal rate of 90% or more (almost completely withered))
same,herbicidal effect on H: barnyard grass,[25]; [29],5 (Herbicidal rate of 90% or more (almost completely withered))
same,herbicidal effect on M: velvetleaf,[26]; [29],5 (Herbicidal rate of 90% or more (almost completely withered))
same,"herbicidal effect on D (Chinese sprangletop), rating 0-5",[27]; 320 g/ha,2 (Herbicidal rate of 20% or more and less than 40%)
same,"herbicidal effect rating, F: southern crabgrass",[28]; 320 g/ha,2 (Herbicidal rate of 20% or more and less than 40%)
CCCC(=O)Oc1c(OC)nn(C)c(=O)c1-c1c(-c2ccc(OC)c(OC)c2)sc2ccccc12 [1-183],"Q: false cleavers, herbicidal effect",[1]; [30],2 (Herbicidal rate of 20% or more and less than 40%)
same,"N: redroot pigweed, herbicidal effect",[2]; [30],3 (Herbicidal rate of 40% or more and less than 70%)
same,"herbicidal effect on E (rice flat sedge), rating 0-5",[3]; 80 g/ha,0 (Herbicidal rate of 5% or less (almost no effect))
same,"I: wild oat, herbicidal effect rating",[4]; AAH 80 g/ha,0 (Herbicidal rate of 5% or less (almost no effect))
same,"P: chickweed, herbicidal effect rating",[5]; AAH 80 g/ha,3 (Herbicidal rate of 40% or more and less than 70%)
same,"O: lambsquarters, herbicidal effect rating",[6]; AAH 80 g/ha,0 (Herbicidal rate of 5% or less (almost no effect))
same,"G: green foxtail, herbicidal effect rating",[7]; AAH 80 g/ha,0 (Herbicidal rate of 5% or less (almost no effect))
same,"F: southern crabgrass, herbicidal effect",[8]; [30],1 (Herbicidal rate of 5% or more and less than 20%)
same,"K: Italian ryegrass, herbicidal effect rating",[9]; AAH 80 g/ha,0 (Herbicidal rate of 5% or less (almost no effect))
same,"J: blackgrass, herbicidal effect rating",[10]; AAH 80 g/ha,0 (Herbicidal rate of 5% or less (almost no effect))
same,"L: windgrass, herbicidal effect rating",[11]; AAH 80 g/ha,0 (Herbicidal rate of 5% or less (almost no effect))
same,"R: persian speedwell, herbicidal effect",[12]; [30],5 (Herbicidal rate of 90% or more (almost completely withered))
same,"R: persian speedwell, herbicidal effect rating",[13]; AAH 80 g/ha,4 (Herbicidal rate of 70% or more and less than 90%)
same,"N: redroot pigweed, herbicidal effect rating",[14]; AAH 80 g/ha,0 (Herbicidal rate of 5% or less (almost no effect))
same,"J: blackgrass, herbicidal effect",[15]; [30],0 (Herbicidal rate of 5% or less (almost no effect))
same,"P: chickweed, herbicidal effect",[16]; [30],4 (Herbicidal rate of 70% or more and less than 90%)
same,"G: green foxtail, herbicidal effect",[17]; [30],4 (Herbicidal rate of 70% or more and less than 90%)
same,"M: velvetleaf, herbicidal effect rating",[18]; AAH 80 g/ha,0 (Herbicidal rate of 5% or less (almost no effect))
same,"K: Italian ryegrass, herbicidal effect",[19]; [30],1 (Herbicidal rate of 5% or more and less than 20%)
same,"herbicidal effect on H (barnyard grass), rating 0-5",[20]; 80 g/ha,3 (Herbicidal rate of 40% or more and less than 70%)
same,"I: wild oat, herbicidal effect",[21]; [30],0 (Herbicidal rate of 5% or less (almost no effect))
same,"H: barnyard grass, herbicidal effect rating",[22]; AAH 80 g/ha,0 (Herbicidal rate of 5% or less (almost no effect))
same,"O: lambsquarters, herbicidal effect",[23]; [30],3 (Herbicidal rate of 40% or more and less than 70%)
same,"L: windgrass, herbicidal effect",[24]; [30],0 (Herbicidal rate of 5% or less (almost no effect))
same,"H: barnyard grass, herbicidal effect",[25]; [30],4 (Herbicidal rate of 70% or more and less than 90%)
same,"M: velvetleaf, herbicidal effect",[26]; [30],1 (Herbicidal rate of 5% or more and less than 20%)
same,"herbicidal effect on D (Chinese sprangletop), rating 0-5",[27]; 80 g/ha,2 (Herbicidal rate of 20% or more and less than 40%)
same,"F: southern crabgrass, herbicidal effect rating",[28]; AAH 80 g/ha,0 (Herbicidal rate of 5% or less (almost no effect))
